Test results taken from ChEMBL document CHEMBL5321210, “N-adamantyl-anthranil amide derivatives: New selective ligands for the cannabinoid receptor subtype 2 (CB2R)” (Eur J Med Chem, 2023).
The source made the active and inactive calls. The rule behind the calls is not given here.

Experiments:
[1] = system: THP-1; assay: Antiinflammatory activity against LPS-activated human THP-1 monocytes assessed as increase in IL-4 production at 10 uM incubated for 24 hrs by ELISA coupled qRT-PCR analysis; type: functional, cell-based
[2] = system: THP-1; assay: Antiinflammatory activity in PMA-differentiated human THP-1 macrophages assessed as decrease in IL-1beta production at 1 to 10 uM incubated for 24 hrs in the presence of JTE907 by ELISA coupled qRT-PCR analysis; type: functional, cell-based; conditions: dose 1-10 µM
[3] = system: THP-1; assay: Antiinflammatory activity in human THP-1 monocytes assessed as decrease in TNF-alpha production at 1 to 10 uM incubated for 24 hrs in the presence of JTE907 by ELISA coupled qRT-PCR analysis; type: functional, cell-based; conditions: dose 1-10 µM
[4] = system: THP-1; assay: Antiinflammatory activity in LPS-activated PMA-differentiated human THP-1 macrophages assessed as decrease in IL-6 production at 1 to 10 uM incubated for 24 hrs in the presence of JTE907 by ELISA coupled qRT-PCR analysis; type: functional, cell-based; conditions: dose 1-10 µM
[5] = system: THP-1; assay: Antiinflammatory activity against LPS-activated human THP-1 monocytes assessed as increase in IL-10 production at 10 uM incubated for 24 hrs by ELISA coupled qRT-PCR analysis; type: functional, cell-based
[6] = system: THP-1; assay: Antiinflammatory activity in human THP-1 monocytes assessed as decrease in IFN-gamma production at 10 uM incubated for 24 hrs by ELISA coupled qRT-PCR analysis relative to control; type: functional; design: scale not given: the % may be the effect or the level left
[7] = system: THP-1; assay: Antiinflammatory activity against LPS-activated human THP-1 monocytes assessed as decrease in IFN-gamma production at 10 uM incubated for 24 hrs by ELISA coupled qRT-PCR analysis; type: functional, cell-based
[8] = system: THP-1; assay: Antiinflammatory activity in human THP-1 monocytes assessed as decrease in IL-1beta production at 10 uM incubated for 24 hrs by ELISA coupled qRT-PCR analysis relative to control; type: functional; design: scale not given: the % may be the effect or the level left
[9] = system: THP-1; assay: Antiinflammatory activity against LPS-activated PMA-differentiated human THP-1 macrophages assessed as decrease in IL-1beta production at 1 to 10 uM incubated for 24 hrs by ELISA coupled qRT-PCR analysis relative to control; type: functional; design: scale not given: the % may be the effect or the level left; conditions: dose 1-10 µM
[10] = system: THP-1; assay: Antiinflammatory activity in human THP-1 monocytes assessed as increase in IL-10 production incubated for 24 hrs by ELISA coupled qRT-PCR analysis; type: functional, cell-based; conditions: dose 1-10 µM
[11] = system: THP-1; assay: Antiinflammatory activity against LPS-activated human THP-1 monocytes assessed as decrease in IL-1beta production at 10 uM incubated for 24 hrs by ELISA coupled qRT-PCR analysis; type: functional, cell-based
[12] = system: THP-1; assay: Antiinflammatory activity in human THP-1 monocytes assessed as decrease in TNF-alpha production at 10 uM incubated for 24 hrs by ELISA coupled qRT-PCR analysis relative to control; type: functional; design: scale not given: the % may be the effect or the level left
[13] = system: THP-1; assay: Antiinflammatory activity against LPS-activated PMA-differentiated human THP-1 macrophages assessed as decrease in IL-6 production at 1 to 10 uM incubated for 24 hrs by ELISA coupled qRT-PCR analysis relative to control; type: functional; design: scale not given: the % may be the effect or the level left; conditions: dose 1-10 µM
[14] = system: THP-1; assay: Antiinflammatory activity in human THP-1 monocytes assessed as decrease in IL-6 production at 10 uM incubated for 24 hrs by ELISA coupled qRT-PCR analysis relative to control; type: functional; design: scale not given: the % may be the effect or the level left
[15] = system: THP-1; assay: Antiinflammatory activity in PMA-differentiated human THP-1 macrophages assessed as reduction in IL-1beta production at 1 to 10 uM incubated for 24 hrs by ELISA coupled qRT-PCR analysis relative to control; type: functional; design: scale not given: the % may be the effect or the level left; conditions: dose 1-10 µM
[16] = system: THP-1; assay: Antiinflammatory activity against LPS-activated human THP-1 monocytes assessed as decrease in TNF-alpha production at 10 uM incubated for 24 hrs by ELISA coupled qRT-PCR analysis; type: functional, cell-based
[17] = system: THP-1; assay: Antiinflammatory activity in PMA-differentiated human THP-1 macrophages assessed as reduction in IL-6 production at 1 to 10 uM incubated for 24 hrs by ELISA coupled qRT-PCR analysis relative to control; type: functional; design: scale not given: the % may be the effect or the level left; conditions: dose 1-10 µM
[18] = system: THP-1; assay: Antiinflammatory activity against LPS-activated human THP-1 monocytes assessed as decrease in IL-6 production at 10 uM incubated for 24 hrs by ELISA coupled qRT-PCR analysis; type: functional, cell-based
[19] = system: THP-1; assay: Antiinflammatory activity in PMA-differentiated human THP-1 macrophages assessed as reduction in IFN-gamma production at 1 to 10 uM incubated for 24 hrs by ELISA coupled qRT-PCR analysis relative to control; type: functional; design: scale not given: the % may be the effect or the level left; conditions: dose 1-10 µM
[20] = system: THP-1; assay: Antiinflammatory activity in LPS-activated PMA-differentiated human THP-1 macrophages assessed as decrease in TNF-alpha production at 10 uM incubated for 24 hrs in the presence of JTE907 by ELISA coupled qRT-PCR analysis; type: functional, cell-based
[21] = system: THP-1; assay: Antiinflammatory activity against LPS-activated PMA-differentiated human THP-1 macrophages assessed as decrease in IL-1beta production at 10 uM incubated for 24 hrs by ELISA coupled qRT-PCR analysis relative to control; type: functional; design: scale not given: the % may be the effect or the level left
[22] = system: THP-1; assay: Antiinflammatory activity in PMA-differentiated human THP-1 monocytes assessed as increase in IL-4 production at 10 uM incubated for 24 hrs in the presence of N-(adamantan-1-yl)-4-(pentylamino)-[1,1'-biphenyl]-3-carboxamide by ELISA coupled qRT-PCR analysis; type: functional, cell-based
[23] = system: THP-1; assay: Antiinflammatory against LPS-activated human THP-1 monocytes assessed as decrease in TNF-alpha production at 10 uM incubated for 24 hrs in the presence of JTE907 by ELISA coupled qRT-PCR analysis; type: functional, cell-based
[24] = system: THP-1; assay: Antiinflammatory activity against LPS-activated human THP-1 monocytes assessed as increase in IL-4 production at 10 uM incubated for 24 hrs in the presence of N-(adamantan-1-yl)-4-(pentylamino)-[1,1'-biphenyl]-3-carboxamide by ELISA coupled qRT-PCR analysis; type: functional, cell-based
[25] = system: THP-1; assay: Antiinflammatory activity in PMA-differentiated human THP-1 monocytes assessed as decrease in IL-6 production at 10 uM incubated for 24 hrs in the presence of N-(adamantan-1-yl)-4-(pentylamino)-[1,1'-biphenyl]-3-carboxamide by ELISA coupled qRT-PCR analysis; type: functional, cell-based
[26] = system: THP-1; assay: Antiinflammatory activity in human THP-1 monocytes assessed as decrease in IL-6 production at 10 uM incubated for 24 hrs in the presence of N-(adamantan-1-yl)-4-(pentylamino)-[1,1'-biphenyl]-3-carboxamide by ELISA coupled qRT-PCR analysis; type: functional, cell-based
[27] = system: THP-1; assay: Antiinflammatory against LPS-activated human THP-1 monocytes assessed as decrease in IL-1beta production at 10 uM incubated for 24 hrs in the presence of JTE907 by ELISA coupled qRT-PCR analysis; type: functional, cell-based
[28] = system: THP-1; assay: Antiinflammatory activity in human THP-1 monocytes assessed as decrease in TNF-alpha production at 10 uM incubated for 24 hrs in the presence of JTE907 by ELISA coupled qRT-PCR analysis; type: functional, cell-based
[29] = system: THP-1; assay: Antiinflammatory activity in human THP-1 monocytes assessed as decrease in IL-1beta production at 10 uM incubated for 24 hrs in the presence of N-(adamantan-1-yl)-4-(pentylamino)-[1,1'-biphenyl]-3-carboxamide by ELISA coupled qRT-PCR analysis; type: functional, cell-based

How did the Activity [1] turn out when `CCCCCNc1ccccc1C(=O)NC12CC3CC(CC(C3)C1)C2` was run?
Its Activity is “Active”.

What about the Activity [2] of the same compound?
The Activity was “inactive”.

What about the Activity [3] of the same compound?
Its Activity is “inactive”.

And the Activity [4]?
The Activity was “inactive”.

And the Activity [5]?
The Activity was “Active”.

And the Activity [6]?
The Activity was 50%.

And the Activity [7]?
The Activity was “Active”.

What about the Activity [8] of the same compound?
Its Activity is 50%.

What about the Activity [9] of the same compound?
The Activity was 70%.

And the Activity [10]?
The Activity was “Dose-Dependent Effect”.

And the Activity [11]?
The Activity was “Active”.

And the Activity [12]?
Its Activity is 50%.

What about the Activity [13] of the same compound?
Its Activity is 70%.

What about the Activity [14] of the same compound?
The Activity was 40%.

And the Activity [15]?
Its Activity is 50%.

And the Activity [16]?
Its Activity is “Active”.

What about the Activity [17] of the same compound?
The Activity was 50%.

And the Activity [18]?
Its Activity is “Active”.

And the Activity [19]?
Its Activity is 50%.

For `O=C(NC1CCCCC1)c1cn(CCN2CCOCC2)c2cc(Cl)ccc2c1=O`, which Activity [20] is on record?
Its Activity is “inactive”.

And the Activity [21]?
The Activity was 70%.

And the Activity [1]?
Its Activity is “Active”.

And the Activity [22]?
The Activity was “inactive”.

What about the Activity [23] of the same compound?
The Activity was “inactive”.

And the Activity [24]?
The Activity was “inactive”.

What about the Activity [5] of the same compound?
The Activity was “Active”.

What about the Activity [6] of the same compound?
Its Activity is 40%.

And the Activity [7]?
Its Activity is “Active”.

What about the Activity [8] of the same compound?
The Activity was 60%.

And the Activity [25]?
Its Activity is “inactive”.

And the Activity [26]?
The Activity was “inactive”.

And the Activity [11]?
The Activity was “Active”.

And the Activity [12]?
The Activity was 60%.

And the Activity [14]?
The Activity was 60%.

What about the Activity [27] of the same compound?
Its Activity is “inactive”.

And the Activity [16]?
The Activity was “Active”.

And the Activity [28]?
Its Activity is “inactive”.

What about the Activity [18] of the same compound?
Its Activity is “Active”.

What about the Activity [29] of the same compound?
The Activity was “inactive”.
